# Reference: patent publication US11566028B2, “Bicyclic heterocycles as FGFR inhibitors” (Incyte Corporation, priority 2019, dated 2023)
# Like-named read-outs stand apart in the source and are kept apart here.
# Assays:
# Assay type in all cases: biochemical
# FGFR1 = FGFR1 (Homo sapiens (Human), UniProt P11362); assay: FGFR Enzymatic Assay (FRET peptide phosphorylation), FGFR1; settings: pre-incubated for 4 hours
# FGFR2 = FGFR2 (Homo sapiens (Human), UniProt P21802); assay: FGFR Enzymatic Assay (FRET peptide phosphorylation), FGFR2
# Sequence of FGFR2 (P21802 22-821): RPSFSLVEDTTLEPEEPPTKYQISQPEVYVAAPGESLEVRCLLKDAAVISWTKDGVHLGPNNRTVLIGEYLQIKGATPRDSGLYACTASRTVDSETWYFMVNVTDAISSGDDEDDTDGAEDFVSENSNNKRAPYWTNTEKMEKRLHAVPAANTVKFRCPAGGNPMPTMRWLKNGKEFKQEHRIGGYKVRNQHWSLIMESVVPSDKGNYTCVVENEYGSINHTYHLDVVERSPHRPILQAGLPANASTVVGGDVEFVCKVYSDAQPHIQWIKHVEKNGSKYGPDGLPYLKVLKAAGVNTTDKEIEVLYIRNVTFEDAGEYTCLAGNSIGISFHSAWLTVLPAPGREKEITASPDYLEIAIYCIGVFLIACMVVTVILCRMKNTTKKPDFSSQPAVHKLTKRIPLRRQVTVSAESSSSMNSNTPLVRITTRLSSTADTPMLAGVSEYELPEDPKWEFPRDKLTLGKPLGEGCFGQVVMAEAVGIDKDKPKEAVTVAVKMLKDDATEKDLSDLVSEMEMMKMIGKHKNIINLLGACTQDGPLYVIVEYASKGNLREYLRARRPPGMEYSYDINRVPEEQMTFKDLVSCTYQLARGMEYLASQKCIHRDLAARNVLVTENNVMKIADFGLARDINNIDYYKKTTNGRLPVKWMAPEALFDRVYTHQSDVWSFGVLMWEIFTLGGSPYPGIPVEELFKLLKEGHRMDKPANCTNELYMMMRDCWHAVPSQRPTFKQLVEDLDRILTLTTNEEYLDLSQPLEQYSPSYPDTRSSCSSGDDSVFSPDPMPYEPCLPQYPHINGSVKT
# FGFR4 = FGFR4 (Homo sapiens (Human), UniProt P22455); assay: FGFR Enzymatic Assay (FRET peptide phosphorylation), FGFR4
# Sequence of FGFR4 (P22455 22-802): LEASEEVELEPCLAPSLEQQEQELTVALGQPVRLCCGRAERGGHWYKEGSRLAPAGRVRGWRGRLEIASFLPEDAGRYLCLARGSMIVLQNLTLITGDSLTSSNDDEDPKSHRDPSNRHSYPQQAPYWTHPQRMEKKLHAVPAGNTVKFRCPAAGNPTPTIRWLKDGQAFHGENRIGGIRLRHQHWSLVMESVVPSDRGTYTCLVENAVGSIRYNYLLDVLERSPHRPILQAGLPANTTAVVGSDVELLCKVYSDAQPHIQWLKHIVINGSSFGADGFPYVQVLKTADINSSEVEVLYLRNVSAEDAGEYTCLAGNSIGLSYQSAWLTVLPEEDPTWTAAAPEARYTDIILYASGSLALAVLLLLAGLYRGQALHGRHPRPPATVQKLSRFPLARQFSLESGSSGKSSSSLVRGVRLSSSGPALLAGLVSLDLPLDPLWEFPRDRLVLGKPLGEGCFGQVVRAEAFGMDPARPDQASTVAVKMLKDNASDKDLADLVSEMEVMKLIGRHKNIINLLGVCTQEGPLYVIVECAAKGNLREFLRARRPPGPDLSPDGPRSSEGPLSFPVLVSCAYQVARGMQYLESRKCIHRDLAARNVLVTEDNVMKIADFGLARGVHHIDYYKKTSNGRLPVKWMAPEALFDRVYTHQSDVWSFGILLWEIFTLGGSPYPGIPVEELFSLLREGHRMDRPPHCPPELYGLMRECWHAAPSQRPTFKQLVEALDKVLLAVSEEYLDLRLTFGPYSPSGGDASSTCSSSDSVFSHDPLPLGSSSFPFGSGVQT
# [1] = target: wild-type un-phosphorylated FGFR3 protein (Homo sapiens (Human), UniProt P22607); assay: FGFR Enzymatic Assay (FRET peptide phosphorylation), FGFR3; settings: pre-incubated for 4 hours
# Sequence of wild-type un-phosphorylated FGFR3 protein (P22607 23-806): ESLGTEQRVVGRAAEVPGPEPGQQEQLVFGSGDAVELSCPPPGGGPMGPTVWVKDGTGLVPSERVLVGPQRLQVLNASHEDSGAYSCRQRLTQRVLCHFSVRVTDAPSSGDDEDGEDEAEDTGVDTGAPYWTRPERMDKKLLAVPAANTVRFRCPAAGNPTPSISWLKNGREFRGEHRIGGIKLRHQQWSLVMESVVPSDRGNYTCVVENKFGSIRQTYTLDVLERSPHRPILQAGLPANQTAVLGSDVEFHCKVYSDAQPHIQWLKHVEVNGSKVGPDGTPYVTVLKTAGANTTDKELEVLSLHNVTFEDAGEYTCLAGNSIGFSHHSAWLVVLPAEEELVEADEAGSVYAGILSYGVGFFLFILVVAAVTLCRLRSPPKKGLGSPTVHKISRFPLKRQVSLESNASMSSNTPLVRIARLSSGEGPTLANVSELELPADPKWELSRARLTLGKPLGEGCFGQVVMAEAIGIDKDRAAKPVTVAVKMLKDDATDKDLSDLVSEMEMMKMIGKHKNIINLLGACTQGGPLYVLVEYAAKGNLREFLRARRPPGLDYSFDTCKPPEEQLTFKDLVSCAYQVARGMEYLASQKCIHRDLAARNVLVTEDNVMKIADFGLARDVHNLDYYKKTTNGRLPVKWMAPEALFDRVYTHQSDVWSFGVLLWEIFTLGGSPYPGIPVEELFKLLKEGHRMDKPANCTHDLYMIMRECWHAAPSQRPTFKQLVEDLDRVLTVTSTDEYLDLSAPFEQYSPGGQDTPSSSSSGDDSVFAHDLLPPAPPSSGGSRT
# Sequence of FGFR1 (P11362 22-822): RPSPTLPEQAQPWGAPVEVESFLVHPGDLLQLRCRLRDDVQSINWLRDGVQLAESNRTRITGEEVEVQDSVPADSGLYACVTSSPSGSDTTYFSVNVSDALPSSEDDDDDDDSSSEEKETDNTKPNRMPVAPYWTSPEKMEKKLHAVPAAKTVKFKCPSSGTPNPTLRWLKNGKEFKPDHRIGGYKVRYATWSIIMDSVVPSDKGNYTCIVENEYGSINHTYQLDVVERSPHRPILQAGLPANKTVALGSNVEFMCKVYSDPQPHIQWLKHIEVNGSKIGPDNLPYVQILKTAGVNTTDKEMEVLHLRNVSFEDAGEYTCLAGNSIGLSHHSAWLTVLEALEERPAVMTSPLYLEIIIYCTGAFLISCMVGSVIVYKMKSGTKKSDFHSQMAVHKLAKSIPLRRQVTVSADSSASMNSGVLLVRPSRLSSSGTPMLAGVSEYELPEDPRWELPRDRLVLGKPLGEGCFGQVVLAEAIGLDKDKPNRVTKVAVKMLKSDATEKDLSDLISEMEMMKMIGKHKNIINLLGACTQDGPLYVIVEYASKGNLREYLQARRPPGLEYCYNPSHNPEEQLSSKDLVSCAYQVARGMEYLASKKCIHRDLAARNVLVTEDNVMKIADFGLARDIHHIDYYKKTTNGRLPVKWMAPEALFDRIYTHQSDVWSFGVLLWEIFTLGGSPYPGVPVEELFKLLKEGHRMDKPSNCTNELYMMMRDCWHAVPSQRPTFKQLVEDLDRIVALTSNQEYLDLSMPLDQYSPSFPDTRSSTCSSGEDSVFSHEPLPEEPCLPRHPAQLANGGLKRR
SMILES,IC50 (FGFR1) [nM],IC50 (FGFR2; pre-incubated for 4 hours) [nM],IC50 (FGFR4; pre-incubated for 4 hours) [nM],IC50 [1] [nM],IC50 (FGFR2) [nM],IC50 (FGFR4) [nM]
"CNC(=O)c1cncc(-c2cnn3cc(-c4cnn(C)c4)c(OC4CCOC4)nc23)c1 (racemic) [Example 3, N-Methyl-5-(6-(1-methyl-1H-pyrazol-4-yl)-5-((tetrahydrofuran-3-yl)oxy)pyrazolo[1,5-a]pyrimidin-3-yl)nicotinamide]",30 to 200,< 10,≥ 200,–,–,–
"CNC(=O)c1cc(C)c(F)c(-c2cnn3cc(-c4cnn(C)c4)c(OC4CCOC4)nc23)c1 (racemic) [Example 4, 4-Fluoro-N,3-dimethyl-5-(6-(1-methyl-1H-pyrazol-4-yl)-5-((tetrahydrofuran-3-yl)oxy)pyrazolo[1,5-a]pyrimidin-3-yl)benzamide]",30 to 200,< 10,30 to 200,< 10,–,–
"Cn1cc(-c2cn3ncc(-c4cccc5[nH]ncc45)c3nc2O[C@H]2CCOC2)cn1 [Example 33, (S)-3-(1H-Indazol-4-yl)-6-(1-methyl-1H-pyrazol-4-yl)-5-((tetrahydrofuran-3-yl)oxy)pyrazolo[1,5-a]pyrimidine]",10 to 30,< 10,30 to 200,< 10,–,–
"CNC(=O)c1cc(C)c(F)c(-c2cnn3cc(-c4cnn(C5CCN(C)CC5)c4)c(N[C@H]4CCOC4)nc23)c1 [Example 34, (S)-4-Fluoro-N,3-dimethyl-5-(6-(1-(1-methylpiperidin-4-yl)-1H-pyrazol-4-yl)-5-((tetrahydrofuran-3-yl)amino)pyrazolo[1,5-a]pyrimidin-3-yl)benzamide]",10 to 30,< 10,30 to 200,< 10,–,–
"CNC(=O)c1cc(C)c(F)c(-c2cnn3cc(-c4cnn(C5CN(C)C5)c4)c(N[C@H]4CCOC4)nc23)c1 [Example 35, (S)-4-Fluoro-N,3-dimethyl-5-(6-(1-(1-methylazetidin-3-yl)-1H-pyrazol-4-yl)-5-((tetrahydrofuran-3-yl)amino)pyrazolo[1,5-a]pyrimidin-3-yl)benzamide]",10 to 30,< 10,≥ 200,< 10,–,–
"CNC(=O)c1cc(C)c(F)c(-c2cnn3cc(-c4cnn(CC(C)(C)O)c4)c(N[C@H]4CCOC4)nc23)c1 [Example 40, (S)-4-Fluoro-3-(6-(1-(2-hydroxy-2-methylpropy1)-1H-pyrazol-4-y1)-5-((tetrahydrofuran-3-yl)amino)pyrazolo[1,5-a]pyrimidin-3-y1)-N,5-dimethylbenzamide]",10 to 30,–,–,< 10,< 10,30 to 200
"CNC(=O)c1cc(C)c(F)c(-c2cnn3cc(-c4cnn(C5CCOC5)c4)c(N[C@H]4CCOC4)nc23)c1 (stereo partly drawn) [Example 41, 4-Fluoro-N,3-dimethyl-5-(6-(1-(tetrahydrofuran-3-yl)-1H-pyrazol-4-y1)-5-(((S)-tetrahydrofuran-3-yl)amino)pyrazolo[1,5-a]pyrimidin-3-yl)benzamide]",30 to 200,–,–,< 10,< 10,30 to 200
"CNC(=O)c1cc(C)c(F)c(-c2cnn3cc(-c4cnc(C)o4)c(N[C@H]4CCOC4)nc23)c1 [Example 42, (S)-4-Fluoro-N,3-dimethyl-5-(6-(2-methyloxazol-5-y1)-5-((tetrahydrofuran-3-yl)amino)pyrazolo[1,5-a]pyrimidin-3-yl)benzamide]",10 to 30,–,–,< 10,< 10,30 to 200
"CCn1ccc(-c2cn3ncc(-c4cc(C(=O)NC)cc(C)c4F)c3nc2N[C@H]2CCOC2)n1 [Example 43, (S)-3-(6-(1-Ethy1-1H-pyrazol-3-y1)-5-((tetrahydrofuran-3-yl)amino)pyrazolo[1,5-a]pyrimidin-3-y1)-4-fluoro-N,5-dimethylbenzamide]",10 to 30,–,–,< 10,< 10,30 to 200
"CCS(=O)(=O)c1cc(F)c(F)c(-c2cnn3cc(-c4cnn(C)c4)c(N[C@H]4CCOC4)nc23)c1 [Example 45, (S)-3-(5-(Ethylsulfonyl)-2,3-difluorophenyl)-6-(1-methyl-1H-pyrazol-4-yl)-N-(tetrahydrofuran-3-yl)pyrazolo[1,5-a]pyrimidin-5-amine]",10 to 30,–,≥ 200,–,–,–
"CCS(=O)(=O)c1cc(F)c(F)c(-c2cnn3cc(-c4cnn(C)c4)c(O[C@H]4CCOC4)nc23)c1 [Example 46, (S)-3-(5-(Ethylsulfonyl)-2,3-difluorophenyl)-6-(1-methyl-1H-pyrazol-4-yl)-5-((tetrahydrofuran-3-yl)oxy)pyrazolo[1,5-a]pyrimidine]",10 to 30,< 10,≥ 200,–,–,–
"Cn1cc(-c2cn3ncc(-c4cccc(-c5cc[nH]n5)c4)c3nc2O[C@H]2CCOC2)cn1 [Example 51, (S)-3-(3-(1H-Pyrazol-3-yl)phenyl)-6-(1-methyl-1H-pyrazol-4-yl)-5-((tetrahydrofuran-3-yl)oxy)pyrazolo[1,5-a]pyrimidine]",10 to 30,< 10,≥ 200,< 10,–,–
